Source: PMC6804253, “Predicting and Experimentally Validating Hot-Spot Residues at Protein–Protein Interfaces” (ACS Chemical Biology, 2019)
Numbering of substitutions follows the chain as printed. Where two headings read alike, the source gives them in different places.

Key:
[1] = tested on: PPIs of the SKEMPI data set (by PDBID); conditions: ref SKEMPI, cited from earlier work; for sk_ddG_kJ (SKEMPI experimental ΔΔG, mutation to alanine) / sk_ddG_kJ (SKEMPI experimental ΔΔG) / sk_ddG_kJ: single mutation to alanine; for sk_ddG_kJ (SKEMPI experimental ΔΔG, mutation to alanine): r_group DERKH; for sk_ddG_kJ (SKEMPI experimental ΔΔG of binding, mutation to alanine): single mutation to alanine in the complex of the given PDBID; for sk_ddG_kJ: SKEMPI experimental ΔΔG of binding
[2] = tested on: PPIs of the SKEMPI data set (by PDBID); experiment: SKEMPI experimental ΔΔG, single mutations to alanine; assay type: binding; conditions: for sk_class: class of the SKEMPI experimental ΔΔG
[3] = PPI given by PDBID, sheet sortedByGroup
[4] = class by ΔΔG threshold 4.184 kJ/mol, ref SKEMPI
[5] = Positive / Neutral / Negative by ΔΔG threshold 4.184 kJ/mol, ref SKEMPI
[6] = complex given by PDBID, mutation by mut_pdb
[7] = complex by PDBID, sheet sortedByGroup
[8] = class by the 4.184 kJ/mol threshold, r_group DERKH

1A22 KA70A
sk_ddG_kJ (SKEMPI experimental ΔΔG, mutation to alanine) [1, 3]: 2.18 kJ | sk_class (class of the SKEMPI experimental ΔΔG) [2, 4]: Neutral (neutral (little effect) 4.184 kJ/mol < ΔΔG > −4.184 kJ/mol)

1A22 KA168A
sk_ddG_kJ (SKEMPI experimental ΔΔG, mutation to alanine) [1, 3]: -0.84 kJ | sk_class (class of the SKEMPI experimental ΔΔG) [2, 4]: Neutral (neutral (little effect) 4.184 kJ/mol < ΔΔG > −4.184 kJ/mol)

1A22 KA172A
sk_ddG_kJ (SKEMPI experimental ΔΔG, mutation to alanine) [1, 3]: 8.37 kJ | sk_class (class of the SKEMPI experimental ΔΔG) [2, 4]: Positive (positive (a hot residue) ΔΔG ≥ 4.184 kJ/mol)

1A22 LA9A
sk_ddG_kJ (SKEMPI experimental ΔΔG of binding, mutation to alanine) [1]: -0.17 kJ | sk_class (class of the SKEMPI experimental ΔΔG) [2, 5]: Neutral (neutral (little effect) 4.184 kJ/mol < ΔΔG > −4.184 kJ/mol)

1A22 LA15A
sk_ddG_kJ (SKEMPI experimental ΔΔG of binding, mutation to alanine) [1]: 0.63 kJ | sk_class (class of the SKEMPI experimental ΔΔG) [2, 5]: Neutral (neutral (little effect) 4.184 kJ/mol < ΔΔG > −4.184 kJ/mol)

1A22 LA45A
sk_ddG_kJ (SKEMPI experimental ΔΔG of binding, mutation to alanine) [1]: 5.02 kJ | sk_class (class of the SKEMPI experimental ΔΔG) [2, 5]: Positive (positive (a hot residue) ΔΔG ≥ 4.184 kJ/mol)

1A22 LA73A
sk_ddG_kJ (SKEMPI experimental ΔΔG of binding, mutation to alanine) [1]: -0.84 kJ | sk_class (class of the SKEMPI experimental ΔΔG) [2, 5]: Neutral (neutral (little effect) 4.184 kJ/mol < ΔΔG > −4.184 kJ/mol)

1A22 NA12A
sk_ddG_kJ (SKEMPI experimental ΔΔG) [1, 6]: 0.42 kJ | sk_class [2]: Neutral (neutral (little effect) 4.184 kJ/mol < ΔΔG > −4.184 kJ/mol)

1A22 NA63A
sk_ddG_kJ (SKEMPI experimental ΔΔG) [1, 6]: 1.26 kJ | sk_class [2]: Neutral (neutral (little effect) 4.184 kJ/mol < ΔΔG > −4.184 kJ/mol)

1A22 QA22A
sk_ddG_kJ (SKEMPI experimental ΔΔG) [1, 6]: -0.84 kJ | sk_class [2]: Neutral (neutral (little effect) 4.184 kJ/mol < ΔΔG > −4.184 kJ/mol)

1A22 QA29A
sk_ddG_kJ (SKEMPI experimental ΔΔG) [1, 6]: -2.51 kJ | sk_class [2]: Neutral (neutral (little effect) 4.184 kJ/mol < ΔΔG > −4.184 kJ/mol)

1A22 QA46A
sk_ddG_kJ (SKEMPI experimental ΔΔG) [1, 6]: 0.42 kJ | sk_class [2]: Neutral (neutral (little effect) 4.184 kJ/mol < ΔΔG > −4.184 kJ/mol)

1A22 QA68A
sk_ddG_kJ (SKEMPI experimental ΔΔG) [1, 6]: 2.51 kJ | sk_class [2]: Neutral (neutral (little effect) 4.184 kJ/mol < ΔΔG > −4.184 kJ/mol)

1A22 QA69A
sk_ddG_kJ (SKEMPI experimental ΔΔG) [1, 6]: -0.21 kJ | sk_class [2]: Neutral (neutral (little effect) 4.184 kJ/mol < ΔΔG > −4.184 kJ/mol)

1A22 QA181A
sk_ddG_kJ (SKEMPI experimental ΔΔG) [1, 6]: 1.13 kJ | sk_class [2]: Neutral (neutral (little effect) 4.184 kJ/mol < ΔΔG > −4.184 kJ/mol)

1A22 RA8A
sk_ddG_kJ (SKEMPI experimental ΔΔG, mutation to alanine) [1, 3]: 0.84 kJ | sk_class (class of the SKEMPI experimental ΔΔG) [2, 4]: Neutral (neutral (little effect) 4.184 kJ/mol < ΔΔG > −4.184 kJ/mol)

1A22 RA16A
sk_ddG_kJ (SKEMPI experimental ΔΔG, mutation to alanine) [1, 3]: 1.00 kJ | sk_class (class of the SKEMPI experimental ΔΔG) [2, 4]: Neutral (neutral (little effect) 4.184 kJ/mol < ΔΔG > −4.184 kJ/mol)

1A22 RA19A
sk_ddG_kJ (SKEMPI experimental ΔΔG, mutation to alanine) [1, 3]: 0.21 kJ | sk_class (class of the SKEMPI experimental ΔΔG) [2, 4]: Neutral (neutral (little effect) 4.184 kJ/mol < ΔΔG > −4.184 kJ/mol)

1A22 RA64A
sk_ddG_kJ (SKEMPI experimental ΔΔG, mutation to alanine) [1, 3]: 6.69 kJ | sk_class (class of the SKEMPI experimental ΔΔG) [2, 4]: Positive (positive (a hot residue) ΔΔG ≥ 4.184 kJ/mol)

1A22 RA178A
sk_ddG_kJ (SKEMPI experimental ΔΔG, mutation to alanine) [1, 3]: 10.04 kJ | sk_class (class of the SKEMPI experimental ΔΔG) [2, 4]: Positive (positive (a hot residue) ΔΔG ≥ 4.184 kJ/mol)

1A22 RA183A
sk_ddG_kJ (SKEMPI experimental ΔΔG, mutation to alanine) [1, 3]: 2.09 kJ | sk_class (class of the SKEMPI experimental ΔΔG) [2, 4]: Neutral (neutral (little effect) 4.184 kJ/mol < ΔΔG > −4.184 kJ/mol)

1A22 SA51A
sk_ddG_kJ (SKEMPI experimental ΔΔG) [1, 6]: 1.26 kJ | sk_class [2]: Neutral (neutral (little effect) 4.184 kJ/mol < ΔΔG > −4.184 kJ/mol)

1A22 SA55A
sk_ddG_kJ (SKEMPI experimental ΔΔG) [1, 6]: 0.46 kJ | sk_class [2]: Neutral (neutral (little effect) 4.184 kJ/mol < ΔΔG > −4.184 kJ/mol)

1A22 SA57A
sk_ddG_kJ (SKEMPI experimental ΔΔG) [1, 6]: 0.84 kJ | sk_class [2]: Neutral (neutral (little effect) 4.184 kJ/mol < ΔΔG > −4.184 kJ/mol)

1A22 SA62A
sk_ddG_kJ (SKEMPI experimental ΔΔG) [1, 6]: 0.42 kJ | sk_class [2]: Neutral (neutral (little effect) 4.184 kJ/mol < ΔΔG > −4.184 kJ/mol)

1A22 SA71A
sk_ddG_kJ (SKEMPI experimental ΔΔG) [1, 6]: 1.72 kJ | sk_class [2]: Neutral (neutral (little effect) 4.184 kJ/mol < ΔΔG > −4.184 kJ/mol)

1A22 SA184A
sk_ddG_kJ (SKEMPI experimental ΔΔG) [1, 6]: -0.21 kJ | sk_class [2]: Neutral (neutral (little effect) 4.184 kJ/mol < ΔΔG > −4.184 kJ/mol)

1A22 SA188A
sk_ddG_kJ (SKEMPI experimental ΔΔG) [1, 6]: -0.84 kJ | sk_class [2]: Neutral (neutral (little effect) 4.184 kJ/mol < ΔΔG > −4.184 kJ/mol)

1A22 TA175A
sk_ddG_kJ (SKEMPI experimental ΔΔG) [1, 6]: 8.37 kJ | sk_class [2]: Positive (positive (a hot residue) ΔΔG ≥ 4.184 kJ/mol)

1A22 VA180A
sk_ddG_kJ (SKEMPI experimental ΔΔG of binding, mutation to alanine) [1]: 0.00 kJ | sk_class (class of the SKEMPI experimental ΔΔG) [2, 5]: Neutral (neutral (little effect) 4.184 kJ/mol < ΔΔG > −4.184 kJ/mol)

1A22 VA185A
sk_ddG_kJ (SKEMPI experimental ΔΔG of binding, mutation to alanine) [1]: 3.64 kJ | sk_class (class of the SKEMPI experimental ΔΔG) [2, 5]: Neutral (neutral (little effect) 4.184 kJ/mol < ΔΔG > −4.184 kJ/mol)

1A22 YA42A
sk_ddG_kJ (SKEMPI experimental ΔΔG of binding, mutation to alanine) [1]: 0.84 kJ | sk_class (class of the SKEMPI experimental ΔΔG) [2, 5]: Neutral (neutral (little effect) 4.184 kJ/mol < ΔΔG > −4.184 kJ/mol)

1A22 YA164A
sk_ddG_kJ (SKEMPI experimental ΔΔG of binding, mutation to alanine) [1]: 1.26 kJ | sk_class (class of the SKEMPI experimental ΔΔG) [2, 5]: Neutral (neutral (little effect) 4.184 kJ/mol < ΔΔG > −4.184 kJ/mol)

1GC1 DC10A
sk_ddG_kJ (SKEMPI experimental ΔΔG, mutation to alanine) [1, 7]: 0.00 kJ | sk_class (class of the SKEMPI experimental ΔΔG) [2, 8]: Neutral (neutral (little effect) 4.184 kJ/mol < ΔΔG > −4.184 kJ/mol)

1GC1 DC53A
sk_ddG_kJ (SKEMPI experimental ΔΔG, mutation to alanine) [1, 7]: 1.26 kJ | sk_class (class of the SKEMPI experimental ΔΔG) [2, 8]: Neutral (neutral (little effect) 4.184 kJ/mol < ΔΔG > −4.184 kJ/mol)

1GC1 EC92A
sk_ddG_kJ (SKEMPI experimental ΔΔG, mutation to alanine) [1, 7]: 0.08 kJ | sk_class (class of the SKEMPI experimental ΔΔG) [2, 8]: Neutral (neutral (little effect) 4.184 kJ/mol < ΔΔG > −4.184 kJ/mol)

1GC1 KC1A
sk_ddG_kJ (SKEMPI experimental ΔΔG, mutation to alanine) [1, 7]: 0.25 kJ | sk_class (class of the SKEMPI experimental ΔΔG) [2, 8]: Neutral (neutral (little effect) 4.184 kJ/mol < ΔΔG > −4.184 kJ/mol)

1GC1 KC8A
sk_ddG_kJ (SKEMPI experimental ΔΔG, mutation to alanine) [1, 7]: 0.46 kJ | sk_class (class of the SKEMPI experimental ΔΔG) [2, 8]: Neutral (neutral (little effect) 4.184 kJ/mol < ΔΔG > −4.184 kJ/mol)

1GC1 KC35A
sk_ddG_kJ (SKEMPI experimental ΔΔG, mutation to alanine) [1, 7]: 1.34 kJ | sk_class (class of the SKEMPI experimental ΔΔG) [2, 8]: Neutral (neutral (little effect) 4.184 kJ/mol < ΔΔG > −4.184 kJ/mol)

1GC1 RC59A
sk_ddG_kJ (SKEMPI experimental ΔΔG, mutation to alanine) [1, 7]: 4.94 kJ | sk_class (class of the SKEMPI experimental ΔΔG) [2, 8]: Positive (positive (a hot residue) ΔΔG ≥ 4.184 kJ/mol)

1GC1 VC86A
sk_ddG_kJ (SKEMPI experimental ΔΔG) ([1]; PPI given by PDBID, sheet sortedByGroup, r_group FAMILYVW): -0.29 kJ | sk_class (class of SKEMPI experimental ΔΔG) [2, 4]: Neutral (neutral (little effect) 4.184 kJ/mol < ΔΔG > −4.184 kJ/mol)

B1: 1DAN RU135A (protein, UniProt P13726 33-251, looked up, variant R135A)
extracellular domain: SGTTNTVAAYNLTWKSTNFKTILEWEPKPVNQVYTVQISTKSGDWKSKCFYTTDTECDLTDEIVKDVKQTYLARVFSYPAGNVESTGSAGEPLYENSPEFTPYLETNLGQPTIQSFEQVGTKVNVTVEDERTLVARNNTFLSLRDVFGKDLIYTLYYWKSSSSGKKTAKTNTNEFLIDVDKGENYCFSVQAVIPSRTVNRKSTDSPVECMGQEKGEFRE
modifications: extracellular domain
sk_ddG_kJ ([1]; complex by PDBID): 2.18 kJ | sk_class ([2]; ref SKEMPI): Neutral (neutral (little effect) 4.184 kJ/mol < ΔΔG > −4.184 kJ/mol)

B2: 1DAN RU136A (protein, UniProt P13726 33-251, looked up, variant R136A)
extracellular domain: B1 extracellular domain with A135R, R136A
modifications: extracellular domain
sk_ddG_kJ ([1]; complex by PDBID): -0.25 kJ | sk_class ([2]; ref SKEMPI): Neutral (neutral (little effect) 4.184 kJ/mol < ΔΔG > −4.184 kJ/mol)
